Paper PMC11274883, “Anticancer Effect of Pt^[sequence], Pt^II5MESS, Pt^II56MESS and Their Platinum(IV)-Dihydroxy Derivatives against Triple-Negative Breast Cancer and Cisplatin-Resistant Colorectal Cancer” (Cancers, 2024)

What was measured:
Type in all cases: cell-based
[1] = test system: MDA−MB−231 cells; experiment: TMRE mitochondrial membrane potential assay; conditions: complexes at IC50, FCCP 20 µM
Protocol: (§1) Cells were then treated with an IC50 drug concentration for each complex. At 24, 48 or 72 h, DMEM was removed, and cells were washed with PBS. Then, cells were incubated with 1 µM tetramethylrhodamine, ethyl ester (TMRE) stain for 30 min. TMRE was then removed, and cells were washed twice with PBS (0.2% BSA), after which phenol red-free media was added. […] The cells were then stained with TMRE, as described above, and the resulting solution was scanned for fluorescence. Three independent experiments in triplicates were implemented.

[2] = test system: HT29 cells; experiment: TMRE mitochondrial membrane potential assay; conditions: complexes at IC50, FCCP 20 µM
Protocol: as §1

[3] = test system: MDA−MB−231 cells; experiment: DCFDA cellular ROS detection assay; conditions: complexes at IC50, TBHP 20 µM
Protocol: (§2) DCFDA/H2DCFDA-cellular ROS Assay Kit (Abcam, Cambridge, MA, USA) was used to investigate the production of ROS in treated cells, as previously described. MDA−MB−231 or HT29 cells were seeded at a total concentration of 2500 cells/well in 96-well plates and incubated overnight. DMEM was then removed, and cells washed with 1× kit buffer, and stained with 25 µM 2′,7′-dichlorofluorescein diacetate (DCFH-DA) for 45 min. […] After that, the plates were scanned using the Glo-Max®-Multimode microplate reader (Promega Corporation, Alexandra, VIC, Australia) at an excitation/emission of 485/535 nm to detect fluorescence (relative fluorescence units, or RFU) at various time points. A positive control was generated using 20 µM tert-butyl hydroperoxide (TBHP), and the same procedure was applied with DCFDA. Three independent experiments in triplicates were implemented.

[4] = test system: HT29 cells; experiment: DCFDA cellular ROS detection assay; conditions: complexes at IC50, TBHP 20 µM
Protocol: as §2

| SMILES | MtMp (mitochondrial membrane potential) ([1]; MDA−MB−231, 24 h) | MtMp (mitochondrial membrane potential) ([1]; MDA−MB−231, 48 h) | MtMp (mitochondrial membrane potential) ([1]; MDA−MB−231, 72 h) | MtMp (mitochondrial membrane potential) ([2]; HT29, 24 h) | MtMp (mitochondrial membrane potential) ([2]; HT29, 48 h) | MtMp (mitochondrial membrane potential) ([2]; HT29, 72 h) | ROS production ([3]; MDA−MB−231, 24 h) | ROS production ([3]; MDA−MB−231, 48 h) | ROS production ([3]; MDA−MB−231, 72 h) | ROS production ([4]; HT29, 24 h) | ROS production ([4]; HT29, 48 h) | ROS production ([4]; HT29, 72 h) |
| --- | --- | --- | --- | --- | --- | --- | --- | --- | --- | --- | --- | --- |
| N#CC(C#N)=NNc1ccc(OC(F)(F)F)cc1 [FCCP, carbonyl cyanide 4-(trifluoromethoxy) phenylhydrazone, reference compound] | 215.89 RFU | 123.38 RFU | 99.10 RFU | 184.32 RFU | 143.31 RFU | 83.58 RFU | – | – | – | – | – | – |
| CC(C)(C)OO [TBHP, tert-butyl hydroperoxide, reference compound] | – | – | – | – | – | – | 509.88 RFU | 400.11 RFU | 388.41 RFU | 544.67 RFU | 362.55 RFU | 371.44 RFU |
